≈ marks a conversion by molar mass, not a printed value.
Legend:
[1] = tested on: KB; test: Cytotoxicity against human KB cells; format: cell-based
[2] = tested on: Plasmodium falciparum; test: Antimalarial activity against chloroquine-resistant Plasmodium falciparum W2; format: functional, organism-based
[3] = tested on: Plasmodium falciparum; test: Antimalarial activity against chloroquine-sensitive Plasmodium falciparum D6; format: functional, organism-based

SMILES | IC50 [1] | IC50 [2] | IC50 [3]
C=C(C)[C@@H]1CC[C@@]2(C)CCC[C@@](C)(N=C=S)[C@@H]2C1 | > 20 µg/mL | > 10 µg/mL | > 10 µg/mL
CC1=C[C@]2(CC1)[C@H](C)CC[C@@H](C(C)C)[C@H]2N=C=S | > 20 µg/mL | 3.11 µg/mL (≈ 11.8 µM) | 12.3 µg/mL (≈ 46.8 µM)
C[C@H]1CCC[C@]2(C)CC[C@H](C(C)(C)N=C=S)C=C12 | > 20 µg/mL | 0.61 µg/mL (≈ 2.32 µM) | 2.24 µg/mL (≈ 8.5 µM)
C=C(C)[C@H]1CC[C@@]2(C)CCC[C@@](C)(N=C=S)[C@@H]2C1 | > 20 µg/mL | 0.55 µg/mL (≈ 2.09 µM) | 4 µg/mL (≈ 15.2 µM)
C[C@@H]1CC[C@H]2[C@@H](C)C(=O)O[C@@H]3O[C@@]4(C)CC[C@@H]1[C@]32OO4 [ARTEMISININ] | > 20 µg/mL | 0.00071 µg/mL (≈ 0.00251 µM) | 0.0041 µg/mL (≈ 0.0145 µM)
[C-]#[N+][C@@H]1[C@H](C(C)C)CC[C@@H](C)[C@@]12C=C(C)CC2 [AXISONITRILE 3] | > 20 µg/mL | 0.0165 µg/mL (≈ 0.0713 µM) | 0.142 µg/mL (≈ 0.614 µM)
OC(c1cc(C(F)(F)F)nc2c(C(F)(F)F)cccc12)C1CCCCN1 (stereo not drawn) [MEFLOQUINE] | – | 0.00049 µg/mL (≈ 0.0013 µM) | 0.0082 µg/mL (≈ 0.0217 µM)
C=C[C@H]1CN2CC[C@H]1C[C@H]2[C@H](O)c1ccnc2ccc(OC)cc12 [QUININE] | > 20 µg/mL | 0.0238 µg/mL (≈ 0.0734 µM) | 0.0102 µg/mL (≈ 0.0314 µM)

Source: ChEMBL document CHEMBL1150068, “Antimalarial activity of sesquiterpenes from the marine sponge Acanthella klethra” (J Nat Prod, 1992)
